The source of these data is patent US20230339939A1 (Bayer Aktiengesellschaft, priority 2020, published 2023).

Assay type in all cases: biochemical
Assay [1] has as its target T1, CSNK1A1 (Homo sapiens (Human), UniProt P48729). Nature of the assay: CSNK1A1 Assay 2 (ADP-Glo, 1 μM ATP, substrate biotin-Ahx-KRRRAL-pS-VASLPGL). As to conditions: median, read-out: CSNK1A1 Assay 2 IC50 [mol/l] (median). On the procedure:
CSNK1A1-inhibitory activity of compounds of the present invention in presence of 1 μM adenosine-tri-phosphate (ATP) was quantified employing the CSNK1A1 assay as described in the following paragraphs. In essence, the enzyme activity is measured by quantification of the adenosine-di-phosphate (ADP), which is generated as a co-product of the enzyme reaction, via the “ADP-Glo™ Kinase Assay” kit from the company Promega. This detection system works as follows: In a first step the ATP not consumed in the kinase reaction is quantitatively converted to cAMP employing an adenylate cyclase (“ADP-Glo-reagent”), then the adenylate cyclase is stopped and the ADP generated in the kinase reaction converted to ATP which generates in a luciferase-based reaction a glow-luminescence signal (“Kinase Detection Reagent”).
(§1) Recombinant fusion protein of N-terminal Glutathion-S-Transferase (GST) and full-length human CSNK1A1, expressed by baculovirus infected insect cells and purified via Glutathion affinity chromatography, was purchased from Life Technologies (product no. PV4174) and used as enzyme. As substrate for the kinase reaction the biotinylated peptide biotin-Ahx-KRRRAL-pS-VASLPGL (C-terminus in amide form) was used which can be purchased e.g. from the company Biosyntan (Berlin-Buch, Germany).
For the assay 50 nl of a 100 fold concentrated solution of the test compound in DMSO was pipetted into a white 1536-well microtiter plate (Greiner Bio-One, Frickenhausen, Germany), 2 μL of a solution of CSNK1A1 in aqueous assay buffer [50 mM HEPES pH 7.5, 10% (v/v) glycerol, 10 mM MgCl2, 50 mM NaCl, 1 mM dithiothreitol, 0.01% (w/v) bovine serum albumin, 0.01% (v/v) Triton X-100] were added and the mixture was incubated for 15 min at 22° C. to allow pre-binding of the test compounds to the enzyme before the start of the kinase reaction. […] The concentration of CSNK1A1 was adjusted depending of the activity of the enzyme lot and was chosen appropriate to have the assay in the linear range, a typical concentrations are about 0.0375 ng/μL. The reaction was stopped by the addition of 2.5 μL of “ADP-Glo-reagent” (1:1.5 fold diluted with water) and the resulting mixture was incubated at 22° C. for 1 h to convert the ATP not consumed in the kinase reaction completely […]. Subsequently 2.5 μL of the “kinase detection reagent” (1.2 fold more concentrated than recommended by the producer) were added, the resulting mixture was incubated at 22° C. for 1 h and then the luminescence measured with a suitable measurement instrument (e.g. Viewlux™ from Perkin-Elmer). The amount of emitted light was taken as a measure for the amount of ADP generated and thereby for the activity of the CSNK1A1.
A general note: ADP-Glo turns the ADP formed in a reaction into a luminescent signal.

Assay [2] deals with wild-type Epidermal Growth Factor Receptor (EGFR) (Homo sapiens (Human), UniProt P00533). Put plainly: WT-EGFR Kinase Assay (TR-FRET, 2 mM ATP). The text has this:
Inhibitory activity of compounds of the present invention against wild-type Epidermal Growth Factor Receptor (EGFR) was quantified employing the TR-FRET based EGFR assay as described in the following paragraphs.
Recombinant fusion protein of N-terminal Glutathion-S-Transferase (GST) and a fragment of human EGFR (amino acids R669 to A1210), expressed in Sf9 insect cells and purified via affinity chromatography using Glutathion Sepharose as described above, was used as kinase. As substrate for the kinase reaction the biotinylated peptide biotin-Ahx-[…] (C-terminus in amide form) was used which can be purchased e.g. form the company Biosynthan GmbH (Berlin-Buch, Germany).
For the assay 50 nl of a 100 fold concentrated solution of the test compound in DMSO was pipetted into either a black low volume 384 well microtiter plate or a black 1536 well microtiter plate (both Greiner Bio-One, Frickenhausen, Germany), 2 μL of a solution of EGFR in aqueous assay buffer [50 mM Hepes pH 7.0, 10 mM MgCl2, 1 mM dithiothreitol, 0.5 mM EGTA, 0.3 mM activated sodium ortho-vanadate, 0.005% (w/v) bovine serum albumin, 0.005% (v/v) Tween-20] were added and the mixture was incubated for 15 min at 22° C. to allow pre-binding of the test compounds to the enzyme before the start of the kinase reaction. […] The concentration of EGFR was adjusted depending of the activity of the enzyme lot and was chosen appropriate to have the assay in the linear range, typical concentration was 7.6 pg/μL. The reaction was stopped by the addition of 3 μL of a solution of HTRF detection reagents (83.3 nM streptavidine-XL665 [Cisbio Bioassays, Codolet, France] and 1.67 nM PT66-Tb-Cryptate, a terbium-cryptate labelled anti-phospho-tyrosine antibody from Cisbio Bioassays [instead of the PT66-Tb-cryptate PT66-Eu-Chelate from Perkin Elmer can also be used]) in an aqueous EDTA-solution (133.3 mM EDTA, 0.2% (w/v) bovine serum albumin in 50 mM HEPES pH 7.5).
The resulting mixture was incubated 1 h at 22° C. to allow the binding of the biotinylated phosphorylated peptide to the streptavidine-XL665 and the PT66-Tb-Cryptate. Subsequently the amount of phosphorylated substrate was evaluated by measurement of the resonance energy transfer from the PT66-Tb-Cryptate to the streptavidine-XL665. Therefore, the fluorescence emissions at 620 nm and 665 nm after excitation at 337 nm were measured in a HTRF reader, e.g. a Pherastar (BMG Labtechnologies, Offenburg, Germany) or a Viewlux (Perkin-Elmer). The ratio of the emissions at 665 nm and at 622 nm was taken as the measure for the amount of phosphorylated substrate.
(In general: Time-resolved FRET reads energy transfer from a long-lived donor to a nearby acceptor.)

The target of assay [3] is T1, CSNK1A1. Nature of the assay: CSNK1A1 High ATP Assay (ADP-Glo, 1 mM ATP). As to conditions: median, read-out: CSNK1A1 high ATP assay IC50 [mol/l] (median). On the procedure: CSNK1A1-inhibitory activity of compounds of the present invention in presence of 1 mM adenosine-tri-phosphate (ATP) was quantified employing the CSNK1A1-high-ATP-assay as described in the following paragraphs. In essence, the enzyme activity is measured by quantification of the adenosine-di-phosphate (ADP), which is generated as a co-product of the enzyme reaction, via the “ADP-Glo™ Kinase Assay” kit from the company Promega. This detection system works as follows: In a first step the ATP not consumed in the kinase reaction is quantitatively converted to cAMP employing an adenylate cyclase (“ADP-Glo-reagent”), then the adenylate cyclase is stopped and the ADP generated in the kinase reaction converted to ATP which generates in a luciferase-based reaction a glow-luminescence signal (“Kinase Detection Reagent”).
as §1
For the assay 50 nl of a 100 fold concentrated solution of the test compound in DMSO was pipetted into a white low volume 384-well microtiter plate (Greiner Bio-One, Frickenhausen, Germany), 2 μL of a solution of CSNK1A1 in aqueous assay buffer [50 mM HEPES pH 7.5, 10% (v/v) glycerol, 10 mM MgCl2, 50 mM NaCl, 1 mM dithiothreitol, 0.01% (w/v) bovine serum albumin, 0.01% (v/v) Triton X-100] were added and the mixture was incubated for 15 min at 22° C. to allow pre-binding of the test compounds to the enzyme before the start of the kinase reaction. […] The concentration of CSNK1A1 was adjusted depending of the activity of the enzyme lot and was chosen appropriate to have the assay in the linear range, a typical concentration is about 0.4 ng/μL. The reaction was stopped by the addition of 2.5 μL of “ADP-Glo-reagent” (1:1.5 fold diluted with water) and the resulting mixture was incubated at 22° C. for 1 h to convert the ATP not consumed in the kinase reaction completely […]. Subsequently 2.5 μL of the “kinase detection reagent” (1.2 fold more concentrated than recommended by the producer) were added, the resulting mixture was incubated at 22° C. for 1 h and then the luminescence measured with a suitable measurement instrument (e.g. Viewlux™ from Perkin-Elmer). The amount of emitted light was taken as a measure for the amount of ADP generated and thereby for the activity of the CSNK1A1.

Assay [4] deals with CSNK1D (Homo sapiens (Human), UniProt P48730). Put plainly: CSNK1D Assay (ADP-Glo, 1 μM ATP). As to conditions: median, read-out: CSNK1D IC50 [mol/l] (median). On the procedure: CSNK1D-inhibitory activity of compounds of the present invention in presence of 1 μM adenosine-tri-phosphate (ATP) was quantified employing the CSNK1 D assay as described in the following paragraphs. In essence, the enzyme activity is measured by quantification of the adenosine-di-phosphate (ADP), which is generated as a co-product of the enzyme reaction, via the “ADP-Glo™ Kinase Assay” kit from the company Promega. This detection system works as follows: In a first step the ATP not consumed in the kinase reaction is quantitatively converted to cAMP employing an adenylate cyclase (“ADP-Glo-reagent”), then the adenylate cyclase is stopped and the ADP generated in the kinase reaction converted to ATP which generates in a luciferase-based reaction a glow-luminescence signal (“Kinase Detection Reagent”).
Recombinant fusion protein of N-terminal Glutathion-S-Transferase (GST) and full-length human CSNK1D, expressed by baculovirus infected insect cells and purified via Glutathion affinity chromatography, was purchased from Life Technologies (product no. PV3665) and used as enzyme. As substrate for the kinase reaction the biotinylated peptide Btn-Ahx-[…] (C-terminus in amide form) was used which can be purchased e.g. from the company Biosyntan (Berlin-Buch, Germany).
For the assay 50 nl of a 100 fold concentrated solution of the test compound in DMSO was pipetted into a white 1536-well microtiter plate (Greiner Bio-One, Frickenhausen, Germany), 2 μL of a solution of CSNK1D in aqueous assay buffer [50 mM HEPES pH 7.5, 10% (v/v) glycerol, 10 mM MgCl2, 50 mM NaCl, 1 mM dithiothreitol, 0.01% (w/v) bovine serum albumin, 0.01% (v/v) Triton X-100] were added and the mixture was incubated for 15 min at 22° C. to allow pre-binding of the test compounds to the enzyme before the start of the kinase reaction. […] The concentration of CSNK1D was adjusted depending of the activity of the enzyme lot and was chosen appropriate to have the assay in the linear range, a typical concentration is about 0.5 ng/μL. The reaction was stopped by the addition of 2.5 μL of “ADP-Glo-reagent” (1:1.5 fold diluted with water) and the resulting mixture was incubated at 22° C. for 1 h to convert the ATP not consumed in the kinase reaction completely […]. Subsequently 2.5 μL of the “kinase detection reagent” (1.2 fold more concentrated than recommended by the producer) were added, the resulting mixture was incubated at 22° C. for 1 h and then the luminescence measured with a suitable measurement instrument (e.g. Viewlux™ from Perkin-Elmer). The amount of emitted light was taken as a measure for the amount of ADP generated and thereby for the activity of the CSNK1D.

The mark [5] stands for this setting: read-out: EGFR Wildtype 2 mM ATP IC50 [mol/l] (median).

Molecules are shown by their SMILES. Like-named read-outs stand apart in the source and are kept apart here. Some results are limits rather than exact numbers.

T1 sequence (P48729 whole entry): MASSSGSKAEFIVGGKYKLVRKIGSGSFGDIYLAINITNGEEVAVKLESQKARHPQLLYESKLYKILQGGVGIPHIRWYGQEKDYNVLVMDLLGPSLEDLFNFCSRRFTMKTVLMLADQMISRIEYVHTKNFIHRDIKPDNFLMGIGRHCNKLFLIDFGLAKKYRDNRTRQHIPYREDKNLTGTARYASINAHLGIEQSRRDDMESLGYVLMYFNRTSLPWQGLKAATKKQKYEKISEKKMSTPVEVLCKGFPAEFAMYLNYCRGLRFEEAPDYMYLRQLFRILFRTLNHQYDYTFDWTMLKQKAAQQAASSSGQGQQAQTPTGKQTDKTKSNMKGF
Chain of wild-type Epidermal Growth Factor Receptor (EGFR) (P00533 669-1210): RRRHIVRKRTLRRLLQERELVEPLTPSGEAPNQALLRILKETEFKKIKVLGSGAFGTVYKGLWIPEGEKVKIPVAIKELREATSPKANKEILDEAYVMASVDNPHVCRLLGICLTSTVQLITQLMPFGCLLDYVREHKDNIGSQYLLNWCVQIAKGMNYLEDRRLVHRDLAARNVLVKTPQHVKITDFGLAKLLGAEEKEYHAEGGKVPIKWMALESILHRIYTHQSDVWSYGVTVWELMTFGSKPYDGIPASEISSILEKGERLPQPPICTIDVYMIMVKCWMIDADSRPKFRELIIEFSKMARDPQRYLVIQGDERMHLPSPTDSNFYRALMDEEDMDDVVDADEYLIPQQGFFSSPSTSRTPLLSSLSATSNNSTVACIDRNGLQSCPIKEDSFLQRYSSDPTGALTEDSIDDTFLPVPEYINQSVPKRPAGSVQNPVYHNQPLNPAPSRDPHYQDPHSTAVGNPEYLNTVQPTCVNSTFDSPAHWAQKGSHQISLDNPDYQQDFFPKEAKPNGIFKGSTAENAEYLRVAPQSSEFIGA
Chain of CSNK1D (P48730 whole entry): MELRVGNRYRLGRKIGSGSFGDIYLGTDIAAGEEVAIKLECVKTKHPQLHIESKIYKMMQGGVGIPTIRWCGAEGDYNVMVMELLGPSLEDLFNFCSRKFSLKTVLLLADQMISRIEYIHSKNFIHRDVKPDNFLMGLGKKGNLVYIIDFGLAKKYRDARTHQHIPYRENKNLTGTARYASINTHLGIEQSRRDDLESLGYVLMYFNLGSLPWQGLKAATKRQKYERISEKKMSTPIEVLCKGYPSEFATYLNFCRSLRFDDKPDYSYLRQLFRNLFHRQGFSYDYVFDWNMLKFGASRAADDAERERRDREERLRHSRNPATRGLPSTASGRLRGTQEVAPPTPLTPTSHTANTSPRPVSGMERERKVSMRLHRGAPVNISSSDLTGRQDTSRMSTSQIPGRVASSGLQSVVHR

Consider `O=C(Cc1ccc(F)cc1)Nc1cc(-c2[nH]c3ccnnc3c2-c2ccccc2)ccn1` [Example 20, 2-(4-fluorophenyl)-N-[4-(7-phenyl-5H-pyrrolo[3,2-c]pyridazin-6-yl)pyridin-2-yl]acetamide], for which the IC50 is 1.3 nM in assay [1], more than 20 µM in assay [2] (setting [5]) and 77.9 nM in assay [3].

As to `CC(C(=O)Nc1cc(-c2[nH]c3ccc(F)nc3c2-c2ccc(F)cn2)ccn1)c1ccc(F)cc1` (single isomer, unassigned; (-)) [Example 49, (−)-N-{4-[5-fluoro-3-(5-fluoropyridin-2-yl)-1H-pyrrolo[3,2-b]pyridin-2-yl]pyridin-2-yl}-2-(4-fluorophenyl)propanamide], the IC50 was found to be 34.5 nM in assay [1], 2580 nM in assay [3] and 33.1 nM in assay [4].

Consider `CC(C(=O)Nc1cc(-c2[nH]c3cccnc3c2-c2ccccc2)ccn1)c1ccc(F)cc1` (single isomer, unassigned; (+)) [Example 13, (+)-2-(4-fluorophenyl)-N-[4-(3-phenyl-1H-pyrrolo[3,2-b]pyridin-2-yl)pyridin-2-yl]propanamide], for which the results for the IC50 in assay [1], in assay [2] (setting [5]) and in assay [3] were 1.66 nM, more than 20 µM and 91.6 nM, respectively.

On to `CC(C(=O)Nc1cc(-c2[nH]c3cccnc3c2-c2ccccc2)ccn1)c1ccc(F)cc1` (single isomer, unassigned; (-)) [Example 12, (−)-2-(4-fluorophenyl)-N-[4-(3-phenyl-1H-pyrrolo[3,2-b]pyridin-2-yl)pyridin-2-yl]propanamide], for which the values for the IC50 in assay [1], in assay [2] (median) and in assay [3] were 37 nM, more than 20 µM and 2510 nM, respectively.

Take `O=C(Cc1ccc(F)cc1)Nc1cc(-c2[nH]c3nccnc3c2-c2ccccc2)ccn1` [Example 18, 2-(4-fluorophenyl)-N-[4-(7-phenyl-5H-pyrrolo[2,3-b]pyrazin-6-yl)pyridin-2-yl]acetamide]: the IC50 was 3.33 nM in assay [1], more than 20 µM in assay [2] (setting [5]) and 260 nM in assay [3].

On to `CC(C(=O)Nc1cc(-c2[nH]c3ccc(F)nc3c2-c2ccc(F)cn2)ccn1)c1ccc(F)cc1` (single isomer, unassigned; (+)) [Example 48, (+)-N-{4-[5-fluoro-3-(5-fluoropyridin-2-yl)-1H-pyrrolo[3,2-b]pyridin-2-yl]pyridin-2-yl}-2-(4-fluorophenyl)propanamide], for which the IC50 in assay [1] amounted to 1.69 nM; in assay [3], 36.1 nM; in assay [4] it was 3.96 nM.

Regarding `O=C(Cc1ccc(F)cc1)Nc1cc(-c2[nH]c3nccnc3c2-c2ccccn2)ccn1` [Example 19, 2-(4-fluorophenyl)-N-{4-[7-(pyridin-2-yl)-5H-pyrrolo[2,3-b]pyrazin-6-yl]pyridin-2-yl}acetamide], the IC50 in assay [1] is 1.02 nM; in assay [2] (setting [5]), more than 20 µM; in assay [3], 33.1 nM.
